This is an account of results in PMC1065314, “A2B adenosine receptor activity is reduced in neutrophils from patients with systemic sclerosis” (Arthritis Research & Therapy, 2004).

Where only a bound is given, the exact number is not on record here.

The experiment deals with T1, A2B adenosine receptor (Homo sapiens, UniProt P29275).
T1 construct: Aliquots of neutrophil membranes (0.2–0.4 mg proteins) were incubated in a final volume of 250 μl T2 buffer; from tissue; host or cells: neutrophils from healthy volunteers and systemic sclerosis patients (membranes)
T1 sequence (P29275 1-332): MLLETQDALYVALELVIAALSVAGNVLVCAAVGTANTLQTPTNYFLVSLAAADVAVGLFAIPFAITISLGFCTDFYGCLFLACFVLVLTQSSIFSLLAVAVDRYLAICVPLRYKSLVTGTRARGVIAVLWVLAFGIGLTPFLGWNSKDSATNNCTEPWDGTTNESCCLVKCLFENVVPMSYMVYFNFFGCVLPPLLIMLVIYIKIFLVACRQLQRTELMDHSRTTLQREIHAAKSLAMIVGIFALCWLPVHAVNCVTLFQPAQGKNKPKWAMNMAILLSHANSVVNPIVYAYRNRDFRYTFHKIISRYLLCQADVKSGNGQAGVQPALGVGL
The experiment is described as follows: [3H]NECA binding to A2B AR in neutrophil membranes (plus CPA and SCH58261). The settings on record: read-out: [^3H]NECA Ki; control neutrophil membranes; competition with 20 nmol/l [3H]NECA plus 50 nmol/l CPA and 100 nmol/l SCH58261; mean ± SEM of three experiments; Cheng and Prusoff. The method, then: For membrane preparation, cells were washed twice with 10 mmol/l Tris-HCl buffer, pH 7.4, containing 10 mmol/l MgCl2, in the presence of protease inhibitors (200 μg/ml bacitracine, 160 μg/ml benzamidine, 20 μg/ml trypsin inhibitor [T1]) and centrifuged at 48,000 g for 15 min at 4°C. Pellets were diluted in 20 volumes of T1 buffer, treated with ADA (2 IU/ml) for 60 min at 37°C to remove endogenous adenosine, and washed twice with 50 mmol/l Tris-HCl buffer, pH 7.4, containing 10 mmol/l MgCl2 (T2).
Aliquots of neutrophil membranes (0.2–0.4 mg proteins) were incubated in a final volume of 250 μl T2 buffer. […] After 90 min incubation at 0°C, the reaction was terminated either by vacuum filtration through Whatman GF/C glass fibre filters, accompanied by three washes with ice-cold T2 buffer (4 ml), or by centrifugation at 2900 g for 15 min at 4°C. A2B AR specificity was evaluated through competition experiments, using different AR ligands.
As a reminder, the Ki is the dissociation constant of the complex between target and ligand, obtained from inhibition or displacement. Turning to `Nc1nc(Cl)nc2c1ncn2[C@@H]1O[C@H](CO)[C@@H](O)[C@H]1O` [2 Cl-adenosine], the Ki came out at 954 ± 600 nM.

In the case of `O=C(Cc1ccccc1)Nc1nc2ccc(Cl)cc2c2nc(-c3ccco3)nn12` [MRS1220], the Ki was over 10000 nM.

For the compound `CCCn1c(=O)c2[nH]c(-c3ccc(OCC(=O)Nc4ccc(C(C)=O)cc4)cc3)nc2n(CCC)c1=O` [MRS1706], the Ki was 5 ± 0.3 nM.
